Laboratory results: patent US20210070748A1, “INHIBITORS OF BRUTONS TYROSINE KINASE” (Pharmacyclics LLC, priority 2015, published 2021)
Like-named read-outs stand apart in the source and are kept apart here.

What was measured:
Assay type in all cases: biochemical
SRC = SRC (Homo sapiens, UniProt P12931); assay: Inhibition of a panel of kinases, in vitro HotSpot kinase assay: SRC
Description: (§1) The degree of inhibition of a panel of kinases is determined using the in vitro HotSpot kinase assay (purified enzymes, ^33P-ATP, an appropriate substrate and 1 μM ATP).

EGFR = EGFR (Homo sapiens, UniProt P00533); assay: Inhibition of a panel of kinases, in vitro HotSpot kinase assay: EGFR
Sequence of EGFR (P00533 25-1210): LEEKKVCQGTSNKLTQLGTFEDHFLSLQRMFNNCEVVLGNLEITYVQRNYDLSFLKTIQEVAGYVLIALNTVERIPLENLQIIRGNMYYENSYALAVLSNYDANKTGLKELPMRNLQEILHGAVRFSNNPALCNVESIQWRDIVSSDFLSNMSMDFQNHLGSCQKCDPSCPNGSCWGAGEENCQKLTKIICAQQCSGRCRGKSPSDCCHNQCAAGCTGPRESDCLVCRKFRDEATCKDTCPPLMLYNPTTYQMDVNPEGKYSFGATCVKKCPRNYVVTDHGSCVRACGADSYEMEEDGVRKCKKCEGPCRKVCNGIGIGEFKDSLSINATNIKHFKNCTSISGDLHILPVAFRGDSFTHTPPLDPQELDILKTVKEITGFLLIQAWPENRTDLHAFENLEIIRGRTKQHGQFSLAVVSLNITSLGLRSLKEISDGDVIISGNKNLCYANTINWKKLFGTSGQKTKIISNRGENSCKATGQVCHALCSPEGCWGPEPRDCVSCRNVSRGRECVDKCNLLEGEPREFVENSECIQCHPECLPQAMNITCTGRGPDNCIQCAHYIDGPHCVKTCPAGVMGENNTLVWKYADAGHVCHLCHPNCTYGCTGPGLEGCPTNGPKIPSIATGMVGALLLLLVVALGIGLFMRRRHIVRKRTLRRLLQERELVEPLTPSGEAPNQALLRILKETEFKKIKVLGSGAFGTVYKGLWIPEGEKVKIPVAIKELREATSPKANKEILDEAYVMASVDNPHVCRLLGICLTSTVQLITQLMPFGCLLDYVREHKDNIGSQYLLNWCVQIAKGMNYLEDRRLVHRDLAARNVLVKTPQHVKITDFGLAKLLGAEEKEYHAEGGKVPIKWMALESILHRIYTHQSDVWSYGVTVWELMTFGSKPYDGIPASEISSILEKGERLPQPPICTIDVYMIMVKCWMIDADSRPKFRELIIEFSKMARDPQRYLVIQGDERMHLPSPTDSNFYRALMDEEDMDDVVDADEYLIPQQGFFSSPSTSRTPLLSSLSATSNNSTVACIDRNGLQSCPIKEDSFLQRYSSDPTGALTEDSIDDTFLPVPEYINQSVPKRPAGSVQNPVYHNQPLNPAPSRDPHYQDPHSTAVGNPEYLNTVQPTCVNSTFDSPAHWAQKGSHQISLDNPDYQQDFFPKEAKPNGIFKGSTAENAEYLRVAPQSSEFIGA
Description: as §1

JAK3 = target: T1, JAK3 (Homo sapiens, UniProt P52333); assay: Inhibition of a panel of kinases, in vitro HotSpot kinase assay: JAK3; details: read-out: IC50 JAK3
T1 sequence (P52333 1-1124): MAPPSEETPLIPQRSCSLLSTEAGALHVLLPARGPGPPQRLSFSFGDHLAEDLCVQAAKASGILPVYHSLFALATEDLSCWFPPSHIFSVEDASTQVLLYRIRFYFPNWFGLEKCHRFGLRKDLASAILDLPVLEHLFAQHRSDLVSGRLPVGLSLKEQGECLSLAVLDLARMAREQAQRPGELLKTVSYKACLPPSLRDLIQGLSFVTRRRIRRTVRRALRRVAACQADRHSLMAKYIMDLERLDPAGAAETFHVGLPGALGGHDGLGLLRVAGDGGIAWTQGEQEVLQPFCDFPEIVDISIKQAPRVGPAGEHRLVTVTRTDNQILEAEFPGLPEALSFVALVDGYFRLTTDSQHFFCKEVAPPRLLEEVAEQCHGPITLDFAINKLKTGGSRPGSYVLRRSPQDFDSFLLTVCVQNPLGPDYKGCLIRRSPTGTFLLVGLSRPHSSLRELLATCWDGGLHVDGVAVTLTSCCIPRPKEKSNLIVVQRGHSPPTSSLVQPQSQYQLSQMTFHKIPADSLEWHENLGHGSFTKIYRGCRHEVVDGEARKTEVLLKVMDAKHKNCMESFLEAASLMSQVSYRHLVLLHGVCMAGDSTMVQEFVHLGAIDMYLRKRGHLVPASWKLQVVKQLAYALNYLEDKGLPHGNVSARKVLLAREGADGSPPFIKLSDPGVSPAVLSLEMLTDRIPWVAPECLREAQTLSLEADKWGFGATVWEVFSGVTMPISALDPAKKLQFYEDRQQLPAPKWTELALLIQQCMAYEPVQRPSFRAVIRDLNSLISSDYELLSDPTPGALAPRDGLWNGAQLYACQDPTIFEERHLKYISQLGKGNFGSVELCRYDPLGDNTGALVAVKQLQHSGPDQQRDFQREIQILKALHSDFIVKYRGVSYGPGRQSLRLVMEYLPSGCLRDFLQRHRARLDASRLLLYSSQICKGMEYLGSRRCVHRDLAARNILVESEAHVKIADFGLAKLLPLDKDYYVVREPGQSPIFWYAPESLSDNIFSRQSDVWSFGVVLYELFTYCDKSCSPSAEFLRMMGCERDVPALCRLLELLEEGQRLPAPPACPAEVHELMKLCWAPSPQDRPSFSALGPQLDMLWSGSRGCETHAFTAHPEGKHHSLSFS

BTK-WT = target: T2, BTK-WT (Homo sapiens, UniProt Q06187); assay: Btk in vitro inhibitory activity (one of Method A TR-FRET, Method B electrophoretic mobility shift, Method C radiometric filter binding); details: read-out: IC50 BTK-WT
T2 construct: purified from insect cells as a full-length construct containing an N-terminal 6X-His tag; His6 (N); made in house; host or cells: insect cells (baculovirus Sf21 in Method B)
T2 sequence (Q06187 whole entry): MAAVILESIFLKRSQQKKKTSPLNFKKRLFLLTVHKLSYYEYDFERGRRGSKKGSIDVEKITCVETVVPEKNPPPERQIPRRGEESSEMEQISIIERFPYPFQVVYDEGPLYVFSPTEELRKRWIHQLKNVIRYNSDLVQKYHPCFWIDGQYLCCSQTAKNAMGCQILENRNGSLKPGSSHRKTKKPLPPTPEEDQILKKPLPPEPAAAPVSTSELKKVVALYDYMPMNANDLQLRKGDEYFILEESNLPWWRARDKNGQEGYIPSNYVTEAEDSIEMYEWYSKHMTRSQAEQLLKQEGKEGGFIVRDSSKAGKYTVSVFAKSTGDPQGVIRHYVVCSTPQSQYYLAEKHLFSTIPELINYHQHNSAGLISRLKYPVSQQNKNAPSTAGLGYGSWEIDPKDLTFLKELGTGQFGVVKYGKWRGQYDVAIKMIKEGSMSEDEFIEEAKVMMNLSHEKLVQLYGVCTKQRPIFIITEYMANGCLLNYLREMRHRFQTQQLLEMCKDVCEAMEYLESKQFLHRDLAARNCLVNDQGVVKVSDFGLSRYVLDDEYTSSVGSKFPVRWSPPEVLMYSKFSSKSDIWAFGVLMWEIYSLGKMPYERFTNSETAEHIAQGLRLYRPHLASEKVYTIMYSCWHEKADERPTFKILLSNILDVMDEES

LCK = LCK (Homo sapiens, UniProt P06239); assay: Inhibition of a panel of kinases, in vitro HotSpot kinase assay: LCK; details: read-out: IC50 LCK
Sequence of LCK (P06239 whole entry): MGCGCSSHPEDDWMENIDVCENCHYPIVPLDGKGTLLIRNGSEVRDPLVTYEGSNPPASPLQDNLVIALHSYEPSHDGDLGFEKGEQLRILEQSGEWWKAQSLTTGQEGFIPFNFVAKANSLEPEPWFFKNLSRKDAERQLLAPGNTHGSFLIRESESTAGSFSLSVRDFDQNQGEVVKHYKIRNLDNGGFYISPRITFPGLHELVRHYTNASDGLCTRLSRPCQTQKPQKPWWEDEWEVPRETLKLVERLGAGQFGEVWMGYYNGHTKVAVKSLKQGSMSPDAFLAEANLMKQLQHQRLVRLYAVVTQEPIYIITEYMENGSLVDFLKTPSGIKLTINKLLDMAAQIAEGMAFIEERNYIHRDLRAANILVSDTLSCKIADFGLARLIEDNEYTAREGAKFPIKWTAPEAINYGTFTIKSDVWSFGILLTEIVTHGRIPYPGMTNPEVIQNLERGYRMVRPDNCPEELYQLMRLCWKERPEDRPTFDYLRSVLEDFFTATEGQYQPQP

[1] = D-compounds panel data, 1 μM ATP

Sequence of SRC (P12931 whole entry): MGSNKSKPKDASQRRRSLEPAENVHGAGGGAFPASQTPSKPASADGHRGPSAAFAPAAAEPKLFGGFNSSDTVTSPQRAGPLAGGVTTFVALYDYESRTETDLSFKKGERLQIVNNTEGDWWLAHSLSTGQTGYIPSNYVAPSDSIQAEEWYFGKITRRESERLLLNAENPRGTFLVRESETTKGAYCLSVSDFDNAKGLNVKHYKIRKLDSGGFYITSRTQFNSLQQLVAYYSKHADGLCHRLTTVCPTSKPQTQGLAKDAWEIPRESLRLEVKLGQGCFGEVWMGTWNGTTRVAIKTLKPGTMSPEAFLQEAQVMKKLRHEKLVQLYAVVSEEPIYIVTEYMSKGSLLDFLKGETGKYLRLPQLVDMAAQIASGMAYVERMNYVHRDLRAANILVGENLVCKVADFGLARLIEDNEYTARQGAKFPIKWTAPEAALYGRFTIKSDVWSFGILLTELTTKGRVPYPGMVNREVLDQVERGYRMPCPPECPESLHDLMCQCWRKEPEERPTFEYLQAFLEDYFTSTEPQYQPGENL

Structure (SMILES)	IC50 (SRC; [1])	IC50 (EGFR; [1])	IC50 (JAK3; [1])	IC50 (BTK-WT; D-compounds panel data)	IC50 (LCK; [1])	IC50 (SRC; E compounds, Table 17)	IC50 (EGFR; E compounds, Table 17)	IC50 (JAK3; E compounds, Table 17)	IC50 (BTK-WT; E compounds, Table 17)	IC50 (LCK; E compounds, Table 17)
Cc1cc(Nc2nc(N3C[C@H](NC(=O)N(C)C)CC[C@H]3C)cnc2C(N)=O)sn1 [Example D-77, 5-[(2R,5R)-5-[(dimethylcarbamoyl)amino]-2-methylpiperidin-1-yl]-3-[(3-methyl-1,2-thiazol-5-yl)amino]pyrazine-2-carboxamide]	1 to 10 µM	1 to 10 µM	1 to 10 µM	0.1 to 1 µM	1 to 10 µM	–	–	–	–	–
Cn1cc(Nc2nc(N3CCC[C@H]4[C@@H]3CCN4C(=O)c3ccc(C4CC4)cc3)cnc2C(N)=O)cn1 [Example D-45, 5-[(3aS,7aS)-1-(4-cyclopropylbenzoyl)-octahydro-1H-pyrrolo[3,2-b]pyridin-4-yl]-3-[(1-methyl-1H-pyrazol-4-yl)amino]pyrazine-2-carboxamide]	1 to 10 µM	> 10 µM	1 to 10 µM	0.01 to 0.1 µM	0.1 to 1 µM	–	–	–	–	–
C[C@@H]1[C@H](NC(=O)c2ccc(C3CC3)cc2F)CCCN1c1cnc(C(N)=O)c(Nc2cnn(C)c2)n1 [Example D-1, 5-[(2R,3R)-3-(4-cyclopropyl-2-fluorobenzamido)-2-methylpiperidin-1-yl]-3-[(1-methyl-1H-pyrazol-4-yl)amino]pyrazine-2-carboxamide]	0.1 to 1 µM	1 to 10 µM	1 to 10 µM	≤ 0.01 µM	1 to 10 µM	–	–	–	–	–
C[C@@H]1[C@H](NC(=O)c2ccc(C3CC3)cc2)CCCN1c1cnc(C(N)=O)c(Nc2ccc(N3CCN(C)CC3)c(C(F)(F)F)c2)n1 [Example D-92, 5-[(2R,3R)-3-(4-cyclopropylbenzamido)-2-methylpiperidin-1-yl]-3-{[4-(4-methylpiperazin-1-yl)-3-(trifluoromethyl)phenyl]amino}pyrazine-2-carboxamide]	0.1 to 1 µM	1 to 10 µM	> 10 µM	≤ 0.01 µM	0.1 to 1 µM	–	–	–	–	–
C[C@@H]1[C@H](NC(=O)c2ccc(C(C)(C)O)nc2)CCCN1c1nnc(C(N)=O)c(Nc2cnn(C)c2)n1 [Example D-41, 3-[(2R,3R)-3-[6-(2-hydroxypropan-2-yl)pyridine-3-amido]-2-methylpiperidin-1-yl]-5-[(1-methyl-1H-pyrazol-4-yl)amino]-1,2,4-triazine-6-carboxamide]	0.01 to 0.1 µM	1 to 10 µM	0.1 to 1 µM	≤ 0.01 µM	0.01 to 0.1 µM	–	–	–	–	–
C[C@@H]1[C@H](NC(=O)c2ccc(C3CC3)nc2)CCCN1c1cnc(C(N)=O)c(Nc2ccc(OC3CCC(F)(F)CC3)cc2)n1 [Example D-48, 5-[(2R,3R)-3-(6-cyclopropylpyridine-3-amido)-2-methylpiperidin-1-yl]-3-({4-[(4,4-difluorocyclohexyl)oxy]phenyl}amino)pyrazine-2-carboxamide]	0.1 to 1 µM	> 10 µM	1 to 10 µM	0.01 to 0.1 µM	> 10 µM	–	–	–	–	–
C[C@H]1C[C@H](NC(=O)c2ccc(C3CC3)cc2)CN(c2cnc(C(N)=O)c(Nc3cnn(C)c3)n2)C1 [Example D-34, 5-[(3S,5S)-3-(4-cyclopropylbenzamido)-5-methylpiperidin-1-yl]-3-[(1-methyl-1H-pyrazol-4-yl)amino]pyrazine-2-carboxamide]	> 10 µM	> 10 µM	> 10 µM	1 to 10 µM	> 10 µM	–	–	–	–	–
C[C@@H]1[C@H](NC(=O)c2ccc(C3CC3)cc2)CCCN1c1cnc(C(N)=O)c(Nc2ccc(N3CCN(C)CC3)cc2)n1 [Example D-81]	0.01 to 0.1 µM	0.1 to 1 µM	1 to 10 µM	≤ 0.01 µM	0.01 to 0.1 µM	–	–	–	–	–
C[C@@H]1[C@H](NC(=O)C23CC(C2)C3)CCCN1c1cnc(C(N)=O)c(Nc2cnn(C)c2)n1 [Example D-90, 5-[(2R,3R)-3-{bicyclo[1.1.1]pentane-1-amido}-2-methylpiperidin-1-yl]-3-[(1-methyl-1H-pyrazol-4-yl)amino]pyrazine-2-carboxamide]	0.1 to 1 µM	1 to 10 µM	1 to 10 µM	0.01 to 0.1 µM	0.1 to 1 µM	–	–	–	–	–
C[C@@H]1[C@H](NC(=O)c2ccc(-c3ncccn3)cc2)CCCN1c1cnc(C(N)=O)c(Nc2cnn(C)c2)n1 [Example D-85, 3-[(1-methyl-1H-pyrazol-4-yl)amino]-5-[(2R,3R)-2-methyl-3-[4-(pyrimidin-2-yl)benzamido]piperidin-1-yl]pyrazine-2-carboxamide]	0.1 to 1 µM	0.1 to 1 µM	0.1 to 1 µM	≤ 0.01 µM	0.1 to 1 µM	–	–	–	–	–
CN(C)C(=O)N[C@@H]1CCCN(c2cnc(C(N)=O)c(Nc3ccc(C4(C)CCN(C5CCCC5)CC4)cc3)n2)[C@H]1CO [Example D-60, 3-{[4-(1-cyclopentyl-4-methylpiperidin-4-yl)phenyl]amino}-5-[(2R,3R)-3-[(dimethylcarbamoyl)amino]-2-(hydroxymethyl)piperidin-1-yl]pyrazine-2-carboxamide]	0.1 to 1 µM	1 to 10 µM	1 to 10 µM	0.1 to 1 µM	1 to 10 µM	–	–	–	–	–
Cn1cc(Nc2nc(N3CCC(NC(=O)c4ccc(C5CC5)cc4)C(O)C3)cnc2C(N)=O)cn1 (single isomer, unassigned) [Example D-28, Trans-5-[4-(4-cyclopropylbenzamido)-3-hydroxypiperidin-1-yl]-3-[(1-methyl-1H-pyrazol-4-yl)amino]pyrazine-2-carboxamide]	1 to 10 µM	> 10 µM	> 10 µM	1 to 10 µM	> 10 µM	–	–	–	–	–
Cn1cc(Nc2nc(N3CC[C@@H](O)[C@H](NC(=O)c4ccc(C5CC5)cc4)C3)cnc2C(N)=O)cn1 (racemic) [Example D-26, (racemic)-trans-5-[3-(4-cyclopropylbenzamido)-4-hydroxypiperidin-1-yl]-3-[(1-methyl-1H-pyrazol-4-yl)amino]pyrazine-2-carboxamide]	1 to 10 µM	> 10 µM	> 10 µM	0.01 to 0.1 µM	1 to 10 µM	–	–	–	–	–
NC(=O)c1ncc(N2CCC[C@@H](NC(=O)c3ccc(C4CC4)cc3F)C2)nc1Nc1cc(-c2ccccc2)ns1 [Example D-3, 5-[(3R)-3-(4-cyclopropyl-2-fluorobenzamido)piperidin-1-yl]-3-[(3-phenyl-1,2-thiazol-5-yl)amino]pyrazine-2-carboxamide]	> 10 µM	> 10 µM	> 10 µM	> 10 µM	> 10 µM	–	–	–	–	–
C=CC(=O)N1CC[C@@H](N(C)c2cnc(C(N)=O)c(Nc3ccc(C4(C)CCN(C5CCCC5)CC4)cc3)n2)C1 [Example E-106, (R)-5-((1-acryloylpyrrolidin-3-yl)(methyl)amino)-3-(4-(1-cyclopentyl-4-methylpiperidin-4-yl)phenylamino)pyrazine-2-carboxamide]	–	–	–	–	–	≤ 0.01 µM	≤ 0.01 µM	< 0.01 µM	≤ 0.01 µM	0.01 to 0.1 µM
